Holding throughout (assay type): in vivo
The test system of assay [1] is ivyleaf morning glory (Ipomoea hederacea; IPOHE). Kind of assay: Greenhouse foliar application, visual herbicidal activity on IPOHE. Particulars: 14 to 21 days after application. From the text: (§1) 2,4-D (dimethylamine salt), dichlorprop (potassium salt) and Glyphomax XRT® herbicide (isopropylamine salt) alone and in combinations were applied to the foliage of rapidly growing plant material utilizing a track sprayer calibrated to deliver an application volume of 187 L/ha. Treated plant material was maintained in a greenhouse that provided a 16-hr photoperiod, supplemented with metal halide-generated light, set to provide a minimum of 500 μmolm^−2s^−1. The greenhouse was maintained at a temperature of 26 to 28° C. and a relative humidity of 50 to 70%. Assessment of herbicidal activity was performed visually 14 to 21 days after application.
(§2) The expected growth reduction of plant species from the combination of herbicides was calculated utilizing the Colby equation:
(§3) Expected growth reduction (E)=X+Y−(X*Y/100)
(§4) where X is % of growth reduction of a weed at a given concentration of a herbicide (or herbicide formulation) and Y is the % growth reduction of the same species and size weed at a given concentration of an independent herbicide (or herbicide formulation).

The subject of assay [2] is common ragweed (Ambrosia artemesifolia; AMBEL). The experiment in a line: Greenhouse foliar application, visual herbicidal activity on AMBEL. The settings on record: 14 to 21 days after application.
Description: as §1, §2, §3, §4

In assay [3] the test system is Canada thistle (Cirsium arvense; CIRAR). Kind of assay: Greenhouse foliar application, visual herbicidal activity on CIRAR. Particulars: 14 to 21 days after application.
Description: as §1, §2, §3, §4

Assay [4] has as its system glyphosate-resistant Conyza canadensis (ERICA). Kind of assay: Greenhouse foliar application, visual herbicidal activity on glyphosate-resistant ERICA. The settings on record: 14 to 21 days after application.
Description: as §1, §2, §3, §4

The subject of assay [5] is velvetleaf (Abutilon theophrasti; ABUTH). Kind of assay: Greenhouse foliar application, visual herbicidal activity on ABUTH. Particulars: 14 to 21 days after application.
Description: as §1, §2, §3, §4

In assay [6] the test system is common waterhemp (Amaranthus rudis; AMATA). Kind of assay: Greenhouse foliar application, visual herbicidal activity on AMATA. Particulars: 14 to 21 days after application.
Description: as §1, §2, §3, §4

For assay [7], the system named is field bindweed (Polygonum convolvulus; POLCO). The experiment in a line: Greenhouse foliar application, visual herbicidal activity on POLCO. The settings on record: 14 to 21 days after application.
Description: as §1, §2, §3, §4

The subject of assay [8] is glyphosate-susceptible Conyza canadensis (ERICA). The experiment in a line: Greenhouse foliar application, visual herbicidal activity on glyphosate-susceptible ERICA. The settings on record: 14 to 21 days after application.
Description: as §1, §2, §3, §4

The test system of assay [9] is hemp sesbania (Sesbania exaltata; SEBEX). The experiment in a line: Greenhouse foliar application, visual herbicidal activity on SEBEX. The settings on record: 14 to 21 days after application.
Description: as §1, §2, §3, §4

Assay [10] deals with spiderwort (Commelina benghalensis; COMBE). The experiment in a line: Greenhouse foliar application, visual herbicidal activity on COMBE. Particulars: 14 to 21 days after application.
Description: as §1, §2, §3, §4

Assay [11] has as its system prickly sida (Sida spinosa; SIDSP). The experiment in a line: Greenhouse foliar application, visual herbicidal activity on SIDSP. Particulars: 2,4-D 140 g ae/ha alone, 14 to 21 days after application.
Description: as §1, §2, §3, §4

For assay [12], the system named is glyphosate-resistant horseweed (ERICA, Conyza canadensis). Kind of assay: Field study at Church Hill, Md., percent visual control of glyphosate-resistant horseweed. The settings on record: 29 days after application. How it is done: as §2, §3, §4
A field study was conducted at Church Hill, Md. where glyphosate-resistant horseweed (ERICA, Conyza canadensis) had been observed for 2-3 years prior to the start of this study. The study design was a split-plot with 4 replications per treatment and each plot was 3.048 M wide and 9.144 M long. The environmental conditions at the time of application were as follows: air temperature, 22° C.; wind speed, 6 kph; wind direction, south; releative humidity, 85%; cloud cover, 80%; target foliage moisture, none; soil moisture, moist; soil temperature at 5 cm depth, 21° C. The treatments were applied using a backpack CO2 sprayer, with six XR8003 flat fan nozzles spaced 46 cm apart (boom length: 2.76 M) and held 40 cm above the plant canopy. The sprayer was operated at 103 kPa and 4.8 kilometers per hour to deliver 187 L of water per hectare. At the time of applications the glyphosate-resistant horseweed were 30-38 cm tall and there were between 10 and 20 plants per square meter (m^2). The percent visual control of glyphosate-resistant horseweed was rated over the entire plot (27.87 m^2) 29 days after application. In each plot between 278 and 557 glyphosate-resistant horseweed plants were rated, collectively, for percent visual control.

For the molecule `CC(Oc1ccc(Cl)cc1Cl)C(=O)O` (stereo not drawn) [Dichlorprop, 2,4-dichlorophenoxy propionic acid], the “Actual Injury (% growth reduction)” value in [1] (Dichlorprop 70 g ae/ha alone) was 68 % growth reduction; in [2] (Dichlorprop 280 g ae/ha alone), 58 % growth reduction; in assay [3] (Dichlorprop 70 g ae/ha alone) it was 48 % growth reduction; in assay [4] (Dichlorprop 210 g ae/ha alone), 43 % growth reduction; in [5] (Dichlorprop 70 g ae/ha alone) it was 33 % growth reduction; in assay [6] (Dichlorprop 280 g ae/ha alone), 48 % growth reduction. Besides, the “Actual Injury (% growth reduction)” value is 38 % growth reduction in assay [7] (Dichlorprop 140 g ae/ha alone), 43 % growth reduction in assay [8] (Dichlorprop 210 g ae/ha alone), 38 % growth reduction in [9] (Dichlorprop 140 g ae/ha alone) and 80 % growth reduction in assay [10] (Dichlorprop 70 g ae/ha alone).

For the molecule `O=C(O)COc1ccc(Cl)cc1Cl` [2,4-D, 2,4-dichlorophenoxy acetic acid], the “Actual Injury (% growth reduction)” value in [1] (2,4-D 70 g ae/ha alone) is 17 % growth reduction; in assay [2] (2,4-D 140 g ae/ha alone), 61 % growth reduction; in assay [3] (2,4-D 280 g ae/ha alone), 38 % growth reduction; in [4] (2,4-D 70 g ae/ha alone), 38 % growth reduction; in assay [11], 17 % growth reduction; in [5] (2,4-D 280 g ae/ha alone) it was 28 % growth reduction. The “Actual Injury (% growth reduction)” value in assay [12] (2,4-D 280 g ae/ha alone) amounted to 12.5 % growth reduction; in assay [12] (2,4-D 560 g ae/ha alone), 23.0 % growth reduction; in assay [12] (2,4-D 1120 g ae/ha alone), 36.3 % growth reduction; in [6] (2,4-D 280 g ae/ha alone), 53 % growth reduction; in assay [7] (2,4-D 280 g ae/ha alone), 32 % growth reduction; in [8] (2,4-D 35 g ae/ha alone), 47 % growth reduction. Besides, the “Actual Injury (% growth reduction)” value in [9] (2,4-D 280 g ae/ha alone) is reported as 37 % growth reduction; in assay [10] (2,4-D 140 g ae/ha alone), 48 % growth reduction.
